# Peptide text beside a SMILES is read from it.
# What was measured:
# irradiated human cells = assay: Responsiveness of irradiated human cells; type: cell-based
# human FGFR1 = human FGFR1 (Homo sapiens, UniProt P11362); assay: Biacore binding assay
# [1] = Stool hemoccult score after sub-TBI; type: in vivo, mouse (Balb/c, C57BL/6); conditions: Balb/c, 12.5 Gy sub-TBI; FGF-P 2 mg/kg im 15 min post irradiation; Amifostine iv 30 min pre-irradiation; P<0.05
# Source text: There are commonly employed assays known to be relevant to both mouse and man for determining relative endpoints. These include: 1) stool blood: mucosal barrier breakdown is associated with bleeding of the small bowel; therefore, a hemoccult analysis with a commercial kit (BD Cat #64151) was used in the preliminary data at 3 days after sub-TBI. The time course and frequency of GI bleeding; 2) stool formation: the GI functions of digestion, absorption of nutrition and water, and the regular movement of intestinal muscle are required for formation of normal stool can be measured. All these functions can be upset by radiation. For example, loss of villi leads to decreased fluid absorption and diarrhea. The colon was excised and examined visually for the presence of formed stool at 3.5 days post-IR; 3) endotoximia: bacterial translocation can occur at early times following gastrointestinal radiation exposure.
# 2) A standard scoring scale was used to evaluate stool formation (diarrhea). The bowel was extracted from the abdomen and visually inspected. Formed stool was easily distinguished from semi-solid and liquid stool as it passed from the ascending to descending colon. FIGS. 7B and 7C show the irradiated bowel in controls compared with FGF-P-treated Balb/c mice. The FGF-P was given at a dose of 2 mg/kg im for three daily doses beginning 15 min after irradiation. […]
# [2] = Blood cell counts after 4 or 5 Gy TBI; type: in vivo, mouse
# Source text: In parallel, the leucocytes and red cells were increased as compared to vehicle-treated mice that received the same IR dose (FIGS. 17C and D).
# [3] = test system: FGFR on AsPC-1 pancreatic cancer epithelial cells; assay: Cell surface binding of biotin-FGF-P, imaging flow cytometry (Amnis Imagestream)
# Experimental: Three preliminary experiments were carried out using FGF-P in vitro to confirm its activity. First, the biotin conjugated FGF-P was used as a tool to examine for cell surface binding. AsPC-1 pancreatic cancer epithelial cells are known to have high levels of FGFR and were used for this study. ASPC1 cells were incubated with 1 μg/ml of biotin-FGF-P and then labeled with streptavidin-FITC. The cells were then analyzed using an imaging flow cytometer (Amnis Imagestream). This device can image each cell as it passes through the laser, it can then sort cells according to both staining and morphological characteristics.
# These clusters can be counted thus allowing for measurement of relative binding coefficients. To test the feasibility of binding coefficient measurement, competition experiments were performed. Free FGF-P (30 ug/ml) was added to cells for 20 min and then the biotin-FGF-P (1 μg/mL) was added. One hour later, the streptavidin-FITC was added and analyzed by flow cytometry. […] In a third test, a bioassay was performed. […]
# Three preliminary experiments were carried out using FGF-P in vitro to confirm its activity. […] The cells were then analyzed using an imaging flow cytometer (Amnis Imagestream). […] These clusters were counted, allowing for measurement of relative binding coefficients. […] One hour later, streptavidin-FITC was added and analyzed by flow cytometry. […]
# [4] = test system: GI Na transport from mucosa to serosa; assay: Electrolyte transport assay with 22Na flux (Ussing chamber); set-up: species or system mouse; conditions: after IR
# Experimental: FGF-P improves GI function: The absorption of Na coupling with nutrition and blocking of pathogen invasion are the basic function of GI. […] To pin down the mechanism in cell/tissue level, the electrolyte transport assay with ^22Na flux was carried with Ussing chamber. […] Similarly, a “Dilution Potential” experiment was carried out and Goldman-Hodgkin-Katz (GHK) Voltage Equation used to determine relative paracellular permeability.
# [5] = vs vehicle-treated mice, same IR dose
# Chain of human FGFR1 (P11362 22-822): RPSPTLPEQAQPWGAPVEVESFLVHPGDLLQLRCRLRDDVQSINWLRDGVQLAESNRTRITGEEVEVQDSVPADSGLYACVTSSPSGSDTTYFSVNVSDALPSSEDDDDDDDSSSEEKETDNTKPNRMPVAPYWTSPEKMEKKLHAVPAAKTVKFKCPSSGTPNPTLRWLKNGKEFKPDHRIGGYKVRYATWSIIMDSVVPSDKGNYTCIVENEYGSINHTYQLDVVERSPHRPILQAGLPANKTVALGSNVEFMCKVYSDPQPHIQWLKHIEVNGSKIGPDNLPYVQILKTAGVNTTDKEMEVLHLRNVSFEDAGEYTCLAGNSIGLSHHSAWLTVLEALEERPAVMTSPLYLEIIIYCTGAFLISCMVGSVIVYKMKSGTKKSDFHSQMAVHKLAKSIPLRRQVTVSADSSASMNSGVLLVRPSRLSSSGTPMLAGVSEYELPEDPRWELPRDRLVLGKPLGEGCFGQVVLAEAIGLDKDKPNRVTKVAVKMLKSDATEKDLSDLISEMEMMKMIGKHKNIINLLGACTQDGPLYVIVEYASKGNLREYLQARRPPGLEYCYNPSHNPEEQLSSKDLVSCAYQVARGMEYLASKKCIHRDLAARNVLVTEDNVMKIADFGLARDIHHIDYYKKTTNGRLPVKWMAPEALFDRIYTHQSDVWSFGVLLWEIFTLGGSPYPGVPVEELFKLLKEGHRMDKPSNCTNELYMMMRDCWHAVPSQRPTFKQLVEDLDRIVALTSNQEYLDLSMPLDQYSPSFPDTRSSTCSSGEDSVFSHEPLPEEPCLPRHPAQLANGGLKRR
smiles,measurement,setting,value
"CC(C)C[C@H](NC(=O)[C@H](C)NC(=O)[C@@H](NC(=O)[C@H](Cc1ccc(O)cc1)NC(=O)[C@H](Cc1c[nH]c2ccccc12)NC(=O)[C@H](CO)NC(=O)[C@H](CO)NC(=O)[C@H](Cc1ccc(O)cc1)NC(=O)[C@H](CCCCN)NC(=O)[C@H](CCCNC(=N)N)NC(=O)[C@H](CO)NC(=O)[C@H](CCCNC(=N)N)NC(=O)[C@H](Cc1ccc(O)cc1)NC(=O)[C@@H](N)CS)C(C)C)C(=O)N[C@@H](CCCCN)C(=O)N[C@@H](CCCNC(=N)N)C(=O)N[C@@H](CS)C(=O)O [FGF-P, CYRSRKYSSWYVALKRC] (H-CYRSRKYSSWYVALKRC-OH; N-terminus and C-terminus assumed)",responsiveness of irradiated human cells,irradiated human cells,maintain their responsiveness to FGF-P
same,binding to human FGFR1,human FGFR1,binding of FGF-P to human FGFR1
same,stool hemoccult score,[1],reduced stool hemoccult score
same,platelet counts,[2]; 4 or 5 Gy TBI,accelerated recovery of platelet counts
same,leucocytes,[2]; [5],increased
same,red cells,[2]; [5],increased
same,cell surface binding,"[3]; AsPC-1 cells, 1 μg/ml biotin-FGF-P, streptavidin-FITC",bound to the cell surface and causes the aggregation of FGFR
same,competition with biotin-FGF-P for cell surface binding,"[3]; free FGF-P 30 ug/ml for 20 min, then biotin-FGF-P 1 μg/mL",competed with biotin-FGF-P for cell surface binding
same,Na transport from mucosa to serosa,[4],reversed
